pIC50: −log10 of the molar value.

Chain of JNK3 kinase (P53779 whole entry): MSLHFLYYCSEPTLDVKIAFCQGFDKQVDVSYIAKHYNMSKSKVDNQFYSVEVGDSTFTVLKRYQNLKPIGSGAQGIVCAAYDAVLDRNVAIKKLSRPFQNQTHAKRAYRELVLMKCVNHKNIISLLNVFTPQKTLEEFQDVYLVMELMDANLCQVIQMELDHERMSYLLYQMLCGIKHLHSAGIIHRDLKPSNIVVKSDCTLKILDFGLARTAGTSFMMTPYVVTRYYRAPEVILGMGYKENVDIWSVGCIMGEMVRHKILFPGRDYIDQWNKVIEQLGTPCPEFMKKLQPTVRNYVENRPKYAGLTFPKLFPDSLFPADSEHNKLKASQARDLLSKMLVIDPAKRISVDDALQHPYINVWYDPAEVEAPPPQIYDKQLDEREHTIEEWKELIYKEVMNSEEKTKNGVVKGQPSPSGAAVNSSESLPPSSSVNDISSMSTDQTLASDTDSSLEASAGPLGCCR

In the assay the target is JNK3 kinase (Homo sapiens, UniProt P53779). Kind of assay: JNK3 SPA assay (phosphorylation of GST-c-Jun). The assay is classed as biochemical. The following applies: 3.33 μM ATP, [γ-33P] ATP, GST-c-Jun substrate, 30 minutes at room temperature. The method, then:
JNK1, JNK2, JNK3—SPA Assay
• 1. Compound is dissolved in DMSO to a convenient concentration and this is diluted in 10% DMSO to a five times concentrate of the desired starting concentration (frequently 1:100). • 2. 10 μl of 500 mM EDTA is added to alternative wells of the Opti-plate row, which will receive kinase reaction plus DMSO. This creates the negative control. • 3. For the JNK2 and JNK3 assay, compounds are prepared in six 2-fold dilutions with water and each concentration is tested in duplicate. For the JNK1 assay compounds are prepared in four 5-fold dilutions with water which are tested in triplicate. Controls are treated identically. • 4. 20 μl per well of each compound concentration is transferred to an Opti-plate, in duplicate. • 5. 30 μl (JNK2/3 SPA) or 50 μl (JNK1 SPA) of substrate solution (25 mM HEPES pH 7.5, 10 mM magnesium acetate with 3.33 μM ATP (JNK2/3) or 2 μM ATP (JNK1), approximately 7.5 kBq [γ-^33P] ATP, GST-c-Jun, in water) is added to each well. • 6. 50 μl (JNK2/3 SPA) or 30 μl (JNK1 SPA) of kinase solution (JNK in 25 mM HEPES pH 7.5, 10 mM Mg Acetate) is added to each well.
• 7. The plate is incubated for 30 minutes at room temperature. • 8. 100 μl of bead/stop solution is added to each well (5 mg/ml glutathione-PVT-SPA beads, 40 mM ATP in PBS). • 9. Plates are sealed and incubated for 30 minutes at room temperature, centrifuged for 10 minutes at 2500 g and counted. • 10. The IC50 values are calculated as the concentration of the compound being tested at which the phosphorylation of c-Jun is decreased to 50% of the control value.
Compound `CN(C)c1ccc(-c2cnc3[nH]cc(C#N)c3c2)cc1` gave a pIC50 of more than 6.30.

Consider `N#Cc1c[nH]c2ncc(-c3ccccc3F)cc12`, for which the pIC50 is more than 6.30.

`C#Cc1c[nH]c2ncc(-c3ccc(N(C)C)cc3)cc12` gave a pIC50 of more than 6.30.

`CCCNC(=O)C#Cc1c[nH]c2ncc(-c3ccccc3Oc3ccccc3)cc12` had a pIC50 of more than 6.30.

One may read the pIC50 as the negative decadic logarithm of the IC50, by convention in mol/L. Low readings indicate a large IC50, high ones a small IC50.

The record behind these values is patent US7612086B2, “JNK inhibitors” (Eisai R & D Management Co. Ltd., priority 2003, dated 2009).
